Test results taken from patent US9302999B2, “Substituted triazoles as herbicides” (E. I. DU PONT DE NEMOURS AND COMPANY, priority 2012, dated 2016).

Columns and labels:
Assay type in all cases: in vivo
[1] = test system: morningglory (Ipomoea coccinea); test: Test C pre-/postemergence: morningglory
Method in brief: (§1)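 Preemergence on seeds in loam/sand, postemergence on 2–18 cm (1–4-leaf) plants in peat-based medium; compounds in non-phytotoxic solvent with surfactant. After 13–15 days in greenhouse, visual rating versus controls, 0 (no effect) to 100 (complete control).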

[2] = test system: winter wheat (Triticum aestivum); test: Test C pre-/postemergence: winter wheat
Method in brief: as §1

[3] = test system: ryegrass, Italian (Italian ryegrass, Lolium multiflorum); test: Test C pre-/postemergence: ryegrass, Italian
Method in brief: as §1

[4] = test system: large crabgrass (Digitaria sanguinalis); test: Test C pre-/postemergence: large crabgrass
Method in brief: as §1

[5] = test system: barnyardgrass (Echinochloa crus-galli); test: Test B flooded paddy: barnyardgrass; conditions: Flood; 250 g ai/ha; applied to paddy water at 2-leaf stage; visually evaluated after 13 to 15 days
Method in brief: (§2)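 Response scored visually, 0–100 relative to controls, 13–15 days after the compound was applied into paddy water; plants were at the 2-leaf stage in pots kept flooded to 3 cm.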

[6] = test system: corn (Zea mays); test: Test C pre-/postemergence: corn
Method in brief: as §1

[7] = test system: blackgrass (Alopecurus myosuroides); test: Test C pre-/postemergence: blackgrass
Method in brief: as §1

[8] = test system: sedge, umbrella (small-flower umbrella sedge Cyperus difformis); test: Test B flooded paddy: sedge, umbrella; conditions: Flood; 250 g ai/ha; applied to paddy water at 2-leaf stage; visually evaluated after 13 to 15 days
Method in brief: as §2

[9] = test system: chickweed (common chickweed, Stellaria media); test: Test C postemergence: chickweed
Method in brief: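 Pot-grown plants in peat/vermiculite medium sprayed postemergence at 2–18 cm height (1- to 4-leaf stage). Kept in greenhouse 13 to 15 days, then visually rated against untreated controls on a 0–100 scale (0 = no effect, 100 = complete control).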

[10] = test system: ducksalad (Heteranthera limosa); test: Test B flooded paddy: ducksalad; conditions: Flood; 250 g ai/ha; applied to paddy water at 2-leaf stage; visually evaluated after 13 to 15 days
Method in brief: as §2

[11] = test system: velvetleaf (Abutilon theophrasti); test: Test A pre-/postemergence: velvetleaf
Method in brief: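 Injury was scored visually on a 0 (no effect) to 100 (complete control) scale versus untreated controls roughly ten days after treatment in the greenhouse. Compounds, formulated in surfactant-containing non-phytotoxic solvent, went on as soil-directed preemergence spray or postemergence to one- to two-leaf plants 2–10 cm tall.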

[12] = Postemergence, 31 g ai/ha, scale 0 to 100 (0 no effect, 100 complete control)
[13] = Postemergence, 62 g ai/ha, scale 0 to 100 (0 no effect, 100 complete control)
[14] = Postemergence, 125 g ai/ha, scale 0 to 100, 0 no effect, 100 complete control
[15] = Postemergence, 250 g ai/ha, scale 0 to 100 (0 no effect, 100 complete control)
[16] = Preemergence, 31 g ai/ha, scale 0 (no effect) to 100 (complete control)
[17] = Preemergence, 62 g ai/ha, scale of 0 to 100, 0 is no effect, 100 is complete control
[18] = Preemergence, 125 g ai/ha, scale 0 to 100, 0 no effect, 100 complete control
[19] = Preemergence, 250 g ai/ha, scale 0 to 100, 0 no effect, 100 complete control
[20] = Postemergence, 250 g ai/ha, scale 0 to 100

Structure (SMILES): CCCc1nn(-c2ccc(F)cc2)nc1Oc1ccnc(C(F)(F)F)c1 [Compound 168]
- Plant response rating, Morningglory [1, 12]: 50
- Plant response rating, Morningglory [1, 13]: 80
- Plant response rating, Morningglory [1, 14]: 90
- Plant response rating, Morningglory [1, 15]: 90
- Plant response rating, Morningglory [1, 16]: 45
- Plant response rating, Morningglory [1, 17]: 55
- Plant response rating, Morningglory [1, 18]: 55
- Plant response rating, Morningglory [1, 19]: 80
- Plant response rating, Wheat [2, 12]: 20
- Plant response rating, Wheat [2, 13]: 20
- Plant response rating, Wheat [2, 14]: 35
- Plant response rating, Wheat [2, 15]: 45
- Plant response rating, Wheat [2, 16]: 5
- Plant response rating, Wheat [2, 17]: 40
- Plant response rating, Wheat [2, 18]: 40
- Plant response rating, Wheat [2, 19]: 60
- Plant response rating, Ryegrass, Italian [3, 12]: 10
- Plant response rating, Ryegrass, Italian [3, 13]: 35
- Plant response rating, Ryegrass, Italian [3, 14]: 60
- Plant response rating, Ryegrass, Italian [3, 15]: 80
- Plant response rating, Ryegrass, Italian [3, 16]: 70
- Plant response rating, Ryegrass, Italian [3, 17]: 98
- Plant response rating, Ryegrass, Italian [3, 18]: 100
- Plant response rating, Ryegrass, Italian [3, 19]: 100
- Plant response rating, Crabgrass, Large [4, 12]: 30
- Plant response rating, Crabgrass, Large [4, 13]: 65
- Plant response rating, Crabgrass, Large [4, 14]: 95
- Plant response rating, Crabgrass, Large [4, 20]: 95
- Plant response rating, Crabgrass, Large [4, 16]: 100
- Plant response rating, Crabgrass, Large [4, 17]: 100
- Plant response rating, Crabgrass, Large [4, 18]: 100
- Plant response rating, Crabgrass, Large [4, 19]: 100
- Plant response rating, Barnyardgrass (0 to 100 scale, 0 is no effect, 100 is complete control) [5]: 80
- Plant response rating, Corn [6, 12]: 15
- Plant response rating, Corn [6, 13]: 15
- Plant response rating, Corn [6, 14]: 30
- Plant response rating, Corn [6, 20]: 45
- Plant response rating, Corn [6, 16]: 5
- Plant response rating, Corn [6, 17]: 15
- Plant response rating, Corn [6, 18]: 25
- Plant response rating, Corn [6, 19]: 55
- Plant response rating, Blackgrass [7, 12]: 45
- Plant response rating, Blackgrass [7, 13]: 45
- Plant response rating, Blackgrass [7, 14]: 80
- Plant response rating, Blackgrass [7, 20]: 80
- Plant response rating, Blackgrass [7, 16]: 90
- Plant response rating, Blackgrass [7, 17]: 90
- Plant response rating, Blackgrass [7, 18]: 95
- Plant response rating, Blackgrass [7, 19]: 98
- Plant response rating, Sedge, Umbrella (0 to 100 scale, 0 is no effect, 100 is complete control) [8]: 85
- Plant response rating, Chickweed ([9]; 31 g ai/ha, scale 0 to 100 (0 no effect, 100 complete control)): 80
- Plant response rating, Chickweed ([9]; 62 g ai/ha, scale 0 to 100 (0 no effect, 100 complete control)): 80
- Plant response rating, Chickweed ([9]; 125 g ai/ha, scale 0 to 100, 0 no effect, 100 complete control): 90
- Plant response rating, Chickweed ([9]; 250 g ai/ha, scale 0 to 100): 100
- Plant response rating, Ducksalad (0 to 100 scale, 0 is no effect, 100 is complete control) [10]: 80
- Plant response rating, Velvetleaf ([11]; Postemergence, 125 g ai/ha, 0 to 100 scale, 0 is no effect, 100 is complete control): 100
- Velvetleaf plant response rating ([11]; Postemergence, 500 g ai/ha, 0 to 100 scale, 0 is no effect, 100 is complete control): 100
- Plant response rating, Velvetleaf ([11]; Preemergence, 125 g ai/ha, 0 to 100 scale where 0 is no effect and 100 is complete control): 30
- Plant response rating, Velvetleaf ([11]; Preemergence, 500 g ai/ha, 0 to 100 scale (0 no effect, 100 complete control)): 90
